What was measured:
mice = assay: In vivo delivery of FLuc-mRNA lipid nanoparticles in mice, in vivo imaging (IVIS)
In short: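 Mice (n=3) received about 75 μL FLuc-mRNA LNP per mouse intramuscularly (rectus femoris), intravenously (tail vein), intraperitoneally or subcutaneously (back). After injection, D-luciferin (200 μL, 15 mg/mL) was given i.p. 10-15 min before IVIS imaging.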

[1] = Particle size and PDI of nucleic acid lipid nanoparticle preparations by dynamic light scattering; type: physicochemical
In short: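 Size read by DLS after diluting the LNP preparation (approx. 0.04 mg/mL mRNA) in ultrapure water with gentle pipette mixing. The same sample, recovered and diluted further with water, was then used for zeta potential measurement.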

[2] = Potential characterization of nucleic acid lipid nanoparticle preparations; type: physicochemical
In short: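 Nanoparticles (about 0.04 mg/mL mRNA) were diluted in ultrapure water for Malvern ZEN3700 measurement: 20 μL into 780 μL for potential alone, or 27.5 μL into 200 μL for DLS particle size followed by addition of 600 μL water for potential.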

[3] = DMG-PEG2000:DSPC:Chol:Lipid 1.50:11.50:17.00:70.00, N/P 30, IV, liver
[4] = DMG-PEG2000:DSPC:Chol:Lipid 1.50:11.50:17.00:70.00, N/P 30, IV, lung
[5] = DMG-PEG2000:DSPC:Chol:Lipid 1.50:11.50:17.00:70.00, N/P 30, IV, spleen
[6] = DMG-PEG2000:DSPC:Chol:Lipid 1.50:11.50:37.00:50.00, N/P 30, IV, liver
[7] = DMG-PEG2000:DSPC:Chol:Lipid 1.50:11.50:37.00:50.00, N/P 30, IV, lung
[8] = DMG-PEG2000:DSPC:Chol:Lipid 1.50:11.50:37.00:50.00, N/P 30, IV, spleen
[9] = DMG-PEG2000:DSPC:Chol:Lipid 1.50:11.50:57.00:30.00, N/P 30, IV, liver
[10] = DMG-PEG2000:DSPC:Chol:Lipid 1.50:11.50:57.00:30.00, N/P 30, IV, lung
[11] = DMG-PEG2000:DSPC:Chol:Lipid 1.50:11.50:57.00:30.00, N/P 30, IV, spleen
[12] = DMG-PEG2000:DSPC:Chol:Lipid 2.50:11.50:51.00:35.00, N/P 18, IV, liver
[13] = DMG-PEG2000:DSPC:Chol:Lipid 2.50:11.50:51.00:35.00, N/P 18, IV, lung
[14] = DMG-PEG2000:DSPC:Chol:Lipid 2.50:11.50:51.00:35.00, N/P 18, IV, spleen
[15] = DMG-PEG2000:DSPC:Chol:Lipid 1.50:11.50:17.00:70.00, N/P 30, mRNA LNP
[16] = DMG-PEG2000:DSPC:Chol:Lipid 1.50:11.50:37.00:50.00, N/P 30, mRNA LNP
[17] = DMG-PEG2000:DSPC:Chol:Lipid 1.50:11.50:57.00:30.00, N/P 30, mRNA LNP
[18] = DMG-PEG2000:DSPC:Chol:Lipid 1.71:12.98:45.31:40.00, N/P 30, mRNA LNP
[19] = DMG-PEG2000:DSPC:Chol:Lipid 2.50:11.50:51.00:35.00, N/P 18, mRNA LNP
[20] = DMG-PEG2000:DSPC:Chol:compound 1.50:30.00:33.50:35.00, N/P 9
[21] = DMG-PEG2000:DSPC:Chol:compound 1.50:30.00:48.50:20.00, N/P 9
[22] = DMG-PEG2000:DSPC:Chol:compound 1.50:30.00:58.50:10.00, N/P 9
[23] = DMG-PEG2000:DSPC:Chol:compound 1.50:30.00:63.50:5.00, N/P 9

- PDI [1, 15]: 0.17 ± 0.01
- Particle size [1, 15]: 118.13 ± 0.40 nm
- PDI [1, 16]: 0.20 ± 0.01
- Particle size [1, 16]: 130.87 ± 0.87 nm
- PDI [1, 17]: 0.13 ± 0.02
- Particle size [1, 17]: 88.09 ± 0.52 nm
- PDI [1, 18]: 0.24 ± 0.02
- Particle size [1, 18]: 94.33 ± 1.52 nm
- PDI [1, 19]: 0.17 ± 0.01
- Particle size [1, 19]: 99.13 ± 0.78 nm
- PDI [1, 20]: 0.20
- Particle size (nm) [1, 20]: 141.40 nm
- PDI [1, 21]: 0.21
- Particle size (nm) [1, 21]: 107.23 nm
- PDI [1, 22]: 0.21
- Particle size (nm) [1, 22]: 136.30 nm
- PDI [1, 23]: 0.16
- Particle size (nm) [1, 23]: 128.87 nm
- Zeta potential (mV) [2, 20]: 16.03 mV
- Zeta potential (mV) [2, 21]: 14.53 mV
- Zeta potential (mV) [2, 22]: 15.47 mV
- Zeta potential (mV) [2, 23]: 16.57 mV
SMILES: CCCCCCCCCCCCOC(=O)C(O)CN(CCCN(C)CCCN(CC(O)C(=O)OCCCCCCCCCCCC)CC(O)C(=O)OCCCCCCCCCCCC)CC(O)C(=O)OCCCCCCCCCCCC (centres unmarked) [Compound L0261]
- IVIS (mice; DMG-PEG2000:DSPC:Chol:Lipid 1.50:11.50:17.00:70.00, N/P 30, IV, body): 4.64 × 10^7
- % of organ targeting (mice; [3]): 1.68%
- IVIS (mice; [3]): 1.65 × 10^6
- % of organ targeting (mice; [4]): 91.29%
- IVIS (mice; [4]): 8.93 × 10^7
- % of organ targeting (mice; [5]): 7.03%
- IVIS (mice; [5]): 6.88 × 10^6
- IVIS (mice; DMG-PEG2000:DSPC:Chol:Lipid 1.50:11.50:37.00:50.00, N/P 30, IV, body): 1.09 × 10^8
- % of organ targeting (mice; [6]): 30.20%
- IVIS (mice; [6]): 1.83 × 10^7
- % of organ targeting (mice; [7]): 30.87%
- IVIS (mice; [7]): 1.87 × 10^7
- % of organ targeting (mice; [8]): 38.93%
- IVIS (mice; [8]): 2.36 × 10^7
- IVIS (mice; DMG-PEG2000:DSPC:Chol:Lipid 1.50:11.50:57.00:30.00, N/P 30, IV, body): 5.88 × 10^7
- % of organ targeting (mice; [9]): 17.84%
- IVIS (mice; [9]): 1.20 × 10^7
- % of organ targeting (mice; [10]): 7.50%
- IVIS (mice; [10]): 5.06 × 10^6
- % of organ targeting (mice; [11]): 74.66%
- IVIS (mice; [11]): 5.03 × 10^7
- IVIS (mice; DMG-PEG2000:DSPC:Chol:Lipid 1.71:12.98:45.31:40.00, N/P 30, IM, whole body scan): 5.24 × 10^6
- IVIS (mice; DMG-PEG2000:DSPC:Chol:Lipid 2.50:11.50:51.00:35.00, N/P 18, IV, body): 4.72 × 10^7
- % of organ targeting (mice; [12]): 6.56%
- IVIS (mice; [12]): 3.81 × 10^6
- % of organ targeting (mice; [13]): 1.88%
- IVIS (mice; [13]): 1.09 × 10^6
- % of organ targeting (mice; [14]): 91.57%
- IVIS (mice; [14]): 5.33 × 10^7
- IVIS (mice; IV, body, DMG-PEG2000:DSPC:Chol:compound 1.50:30.00:33.50:35.00, N/P 9, Fluc-mRNA): 2.66E+07
- IVIS (mice; IV, body, DMG-PEG2000:DSPC:Chol:compound 1.50:30.00:48.50:20.00, N/P 9, Fluc-mRNA): 1.18E+07
- IVIS (mice; IV, body, DMG-PEG2000:DSPC:Chol:compound 1.50:30.00:58.50:10.00, N/P 9, Fluc-mRNA): 2.03E+06
- IVIS (mice; IV, body, DMG-PEG2000:DSPC:Chol:compound 1.50:30.00:63.50:5.00, N/P 9, Fluc-mRNA): 1.06E+06
- % of organ targeting (mice; IV, liver, DMG-PEG2000:DSPC:Chol:compound 1.50:30.00:33.50:35.00, N/P 9): 3.86%
- IVIS (mice; IV, liver, DMG-PEG2000:DSPC:Chol:compound 1.50:30.00:33.50:35.00, N/P 9, Fluc-mRNA): 1.00E+06
- % of organ targeting (mice; IV, liver, DMG-PEG2000:DSPC:Chol:compound 1.50:30.00:48.50:20.00, N/P 9): 8.55%
- IVIS (mice; IV, liver, DMG-PEG2000:DSPC:Chol:compound 1.50:30.00:48.50:20.00, N/P 9, Fluc-mRNA): 1.65E+06
- % of organ targeting (mice; IV, liver, DMG-PEG2000:DSPC:Chol:compound 1.50:30.00:58.50:10.00, N/P 9): 36.36%
- IVIS (mice; IV, liver, DMG-PEG2000:DSPC:Chol:compound 1.50:30.00:58.50:10.00, N/P 9, Fluc-mRNA): 7.14E+05
- % of organ targeting (mice; IV, liver, DMG-PEG2000:DSPC:Chol:compound 1.50:30.00:63.50:5.00, N/P 9): 26.05%
- IVIS (mice; IV, liver, DMG-PEG2000:DSPC:Chol:compound 1.50:30.00:63.50:5.00, N/P 9, Fluc-mRNA): 1.91E+05
- % of organ targeting (mice; IV, lung, DMG-PEG2000:DSPC:Chol:compound 1.50:30.00:33.50:35.00, N/P 9): 2.02%
- IVIS (mice; IV, lung, DMG-PEG2000:DSPC:Chol:compound 1.50:30.00:33.50:35.00, N/P 9, Fluc-mRNA): 5.23E+05
- % of organ targeting (mice; IV, lung, DMG-PEG2000:DSPC:Chol:compound 1.50:30.00:48.50:20.00, N/P 9): 4.05%
- IVIS (mice; IV, lung, DMG-PEG2000:DSPC:Chol:compound 1.50:30.00:48.50:20.00, N/P 9, Fluc-mRNA): 7.80E+05
- % of organ targeting (mice; IV, lung, DMG-PEG2000:DSPC:Chol:compound 1.50:30.00:58.50:10.00, N/P 9): 4.39%
- IVIS (mice; IV, lung, DMG-PEG2000:DSPC:Chol:compound 1.50:30.00:58.50:10.00, N/P 9, Fluc-mRNA): 8.62E+04
- % of organ targeting (mice; IV, lung, DMG-PEG2000:DSPC:Chol:compound 1.50:30.00:63.50:5.00, N/P 9): 7.91%
- IVIS (mice; IV, lung, DMG-PEG2000:DSPC:Chol:compound 1.50:30.00:63.50:5.00, N/P 9, Fluc-mRNA): 5.78E+04
- % of organ targeting (mice; IV, spleen, DMG-PEG2000:DSPC:Chol:compound 1.50:30.00:33.50:35.00, N/P 9): 94.12%
- IVIS (mice; IV, spleen, DMG-PEG2000:DSPC:Chol:compound 1.50:30.00:33.50:35.00, N/P 9, Fluc-mRNA): 2.44E+07
- % of organ targeting (mice; IV, spleen, DMG-PEG2000:DSPC:Chol:compound 1.50:30.00:48.50:20.00, N/P 9): 87.40%
- IVIS (mice; IV, spleen, DMG-PEG2000:DSPC:Chol:compound 1.50:30.00:48.50:20.00, N/P 9, Fluc-mRNA): 1.68E+07
- % of organ targeting (mice; IV, spleen, DMG-PEG2000:DSPC:Chol:compound 1.50:30.00:58.50:10.00, N/P 9): 59.25%
- IVIS (mice; IV, spleen, DMG-PEG2000:DSPC:Chol:compound 1.50:30.00:58.50:10.00, N/P 9, Fluc-mRNA): 1.16E+06
- % of organ targeting (mice; IV, spleen, DMG-PEG2000:DSPC:Chol:compound 1.50:30.00:63.50:5.00, N/P 9): 66.04%
- IVIS (mice; IV, spleen, DMG-PEG2000:DSPC:Chol:compound 1.50:30.00:63.50:5.00, N/P 9, Fluc-mRNA): 4.83E+05
- tissue-targeting specificity (lung vs spleen depending on molar percentage of compound) (mice; certain formulations, Table 2): strong tissue-targeting specificity

Reference: patent US12233161B1, “Lipids and lipid nanoparticle formulations” (LONGUIDE BIOPHARMA CORPORATION, priority 2024, dated 2025)
